Data reported in ChEMBL document CHEMBL3621197, “Design, synthesis, and preliminary bioactivity studies of substituted purine hydroxamic acid derivatives as novel histone deacetylase (HDAC) inhibitors” (Medchemcomm, 2014).

Columns and labels:
[1] = target: T1, Histone deacetylase (HDAC1 and HDAC2) (Homo sapiens, UniProt Q13547+Q92769); conditions: HeLa, at 5 µM
Description: Inhibition of HDAC1/HDAC2 isolated from human HeLa cells at 5 umol/L incubated for 30 mins by Color de Lys assay

[2] = target: T1, Histone deacetylase (HDAC1 and HDAC2); test: Inhibition of HDAC1/HDAC2 isolated from human HeLa cells incubated for 30 mins by Color de Lys assay; assay type: cell-based
PC-3 = test: cells; assay type: functional, cell-based; conditions: Homo sapiens, PC-3, 48 h
Description: Cytotoxicity against human PC3 cells assessed as inhibition of cell proliferation after 48 hrs by MTT assay

A549 = test: cells; assay type: functional, cell-based; conditions: Homo sapiens, A549, 48 h
Description: Cytotoxicity against human A549 cells assessed as inhibition of cell proliferation after 48 hrs by MTT assay

[3] = target: T2, Protein deacetylase HDAC6 (Homo sapiens, UniProt Q9UBN7); test: Inhibition of recombinant full length human HDAC6 expressed in Baculovirus infected insect Sf9 cells incubated for 30 mins measured by fluorescence assay
T2 sequence (Q9UBN7 whole entry): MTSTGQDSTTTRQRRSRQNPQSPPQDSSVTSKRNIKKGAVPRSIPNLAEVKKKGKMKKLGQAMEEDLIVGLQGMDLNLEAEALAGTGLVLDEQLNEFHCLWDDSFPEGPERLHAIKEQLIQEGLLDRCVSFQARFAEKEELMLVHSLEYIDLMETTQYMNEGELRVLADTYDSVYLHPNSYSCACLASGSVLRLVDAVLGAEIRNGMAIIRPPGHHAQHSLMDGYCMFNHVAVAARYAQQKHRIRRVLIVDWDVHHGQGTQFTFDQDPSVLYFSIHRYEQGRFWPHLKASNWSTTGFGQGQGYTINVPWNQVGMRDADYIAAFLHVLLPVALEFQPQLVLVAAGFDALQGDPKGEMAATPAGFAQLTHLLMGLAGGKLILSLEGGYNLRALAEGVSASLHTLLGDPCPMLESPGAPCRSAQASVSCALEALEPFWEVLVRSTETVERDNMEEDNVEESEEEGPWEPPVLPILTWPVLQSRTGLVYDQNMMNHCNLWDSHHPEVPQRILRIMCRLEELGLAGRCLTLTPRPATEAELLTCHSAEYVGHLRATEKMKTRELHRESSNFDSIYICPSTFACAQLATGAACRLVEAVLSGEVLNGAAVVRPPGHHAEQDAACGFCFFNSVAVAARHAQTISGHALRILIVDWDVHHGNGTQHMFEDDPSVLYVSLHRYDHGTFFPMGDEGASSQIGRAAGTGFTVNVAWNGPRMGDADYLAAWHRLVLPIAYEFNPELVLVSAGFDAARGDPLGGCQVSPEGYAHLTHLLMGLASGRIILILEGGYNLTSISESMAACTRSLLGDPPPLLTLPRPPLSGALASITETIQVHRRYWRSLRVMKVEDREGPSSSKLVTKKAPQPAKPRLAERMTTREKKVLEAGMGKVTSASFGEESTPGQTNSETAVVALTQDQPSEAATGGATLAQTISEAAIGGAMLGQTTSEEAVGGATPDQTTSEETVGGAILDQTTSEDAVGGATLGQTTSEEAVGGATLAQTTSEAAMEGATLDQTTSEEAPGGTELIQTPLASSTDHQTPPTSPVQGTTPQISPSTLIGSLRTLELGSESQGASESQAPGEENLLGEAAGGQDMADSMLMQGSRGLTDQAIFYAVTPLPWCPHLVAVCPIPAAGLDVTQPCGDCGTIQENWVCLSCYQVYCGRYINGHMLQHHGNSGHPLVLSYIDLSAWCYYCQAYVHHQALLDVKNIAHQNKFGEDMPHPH

MDA-MB-231 = test: cells; assay type: functional, cell-based; conditions: Homo sapiens, MDA-MB-231, 48 h
Description: Cytotoxicity against human MDA-MB-231 cells assessed as inhibition of cell proliferation after 48 hrs by MTT assay

Histone deacetylase 1 = Histone deacetylase 1 (Homo sapiens, UniProt Q13547); test: Inhibition of recombinant full length human HDAC1 (1 to 482 amino acids) expressed in Baculovirus infected insect Sf9 cells incubated for 30 mins measured by fluorescence assay
Chain of Histone deacetylase 1 (Q13547 whole entry, the tested form may be a part): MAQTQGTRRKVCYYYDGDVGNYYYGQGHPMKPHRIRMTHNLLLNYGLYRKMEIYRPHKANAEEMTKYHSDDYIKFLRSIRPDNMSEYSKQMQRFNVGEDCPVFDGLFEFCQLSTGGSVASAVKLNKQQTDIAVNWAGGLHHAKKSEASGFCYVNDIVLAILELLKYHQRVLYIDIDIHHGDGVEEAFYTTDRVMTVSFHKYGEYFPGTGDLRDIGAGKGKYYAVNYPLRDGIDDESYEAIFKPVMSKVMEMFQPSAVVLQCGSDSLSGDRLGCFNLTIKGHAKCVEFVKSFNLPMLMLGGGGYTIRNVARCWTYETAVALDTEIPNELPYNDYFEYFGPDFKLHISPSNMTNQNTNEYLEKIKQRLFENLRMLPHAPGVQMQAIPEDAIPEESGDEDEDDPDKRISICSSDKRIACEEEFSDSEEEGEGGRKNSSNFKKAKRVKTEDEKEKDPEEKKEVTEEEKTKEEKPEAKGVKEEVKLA

U-937 = test: cells; assay type: functional, cell-based; conditions: Homo sapiens, U-937, 48 h
Description: Cytotoxicity against human U937 cells assessed as inhibition of cell proliferation after 48 hrs by MTT assay

cells [4] = assay type: functional, cell-based; conditions: Homo sapiens, KG-1, 48 h
Description: Cytotoxicity against human KG1 cells assessed as inhibition of cell proliferation after 48 hrs by MTT assay

Histone deacetylase 8 = target: T3, Histone deacetylase 8 (Homo sapiens, UniProt Q9BY41); test: Inhibition of recombinant full length human HDAC8 expressed in Baculovirus infected insect Sf9 cells preincubated for 30 mins followed by substrate addition measured after 15 to 45 mins by luminescence assay
T3 sequence (Q9BY41 whole entry): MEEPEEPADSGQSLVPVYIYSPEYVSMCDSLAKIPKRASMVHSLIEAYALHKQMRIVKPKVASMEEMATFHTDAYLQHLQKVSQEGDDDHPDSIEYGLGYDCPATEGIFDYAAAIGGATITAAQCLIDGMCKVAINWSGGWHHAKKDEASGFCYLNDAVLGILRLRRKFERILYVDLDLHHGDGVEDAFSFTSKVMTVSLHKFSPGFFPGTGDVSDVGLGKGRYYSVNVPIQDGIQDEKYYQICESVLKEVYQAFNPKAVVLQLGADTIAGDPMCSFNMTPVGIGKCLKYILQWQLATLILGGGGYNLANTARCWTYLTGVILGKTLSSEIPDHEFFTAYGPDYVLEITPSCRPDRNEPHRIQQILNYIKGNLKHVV

cells [5] = assay type: functional, cell-based, ES2; conditions: Homo sapiens, ES-2, 48 h
Description: Cytotoxicity against human ES2 cells assessed as inhibition of cell proliferation after 48 hrs by MTT assay

MCF7 = test: cells; assay type: functional, cell-based; conditions: Homo sapiens, MCF7, 48 h
Description: Cytotoxicity against human MCF7 cells assessed as inhibition of cell proliferation after 48 hrs by MTT assay

HeLa = test: cells; assay type: functional, cell-based; conditions: Homo sapiens, 48 h
Description: Cytotoxicity against human HeLa cells assessed as inhibition of cell proliferation after 48 hrs by MTT assay

T1 sequence (Q13547 whole entry, looked up): as the sequence (Q13547 whole entry, the tested form may be a part) above
T1 sequence (Q92769 whole entry, looked up): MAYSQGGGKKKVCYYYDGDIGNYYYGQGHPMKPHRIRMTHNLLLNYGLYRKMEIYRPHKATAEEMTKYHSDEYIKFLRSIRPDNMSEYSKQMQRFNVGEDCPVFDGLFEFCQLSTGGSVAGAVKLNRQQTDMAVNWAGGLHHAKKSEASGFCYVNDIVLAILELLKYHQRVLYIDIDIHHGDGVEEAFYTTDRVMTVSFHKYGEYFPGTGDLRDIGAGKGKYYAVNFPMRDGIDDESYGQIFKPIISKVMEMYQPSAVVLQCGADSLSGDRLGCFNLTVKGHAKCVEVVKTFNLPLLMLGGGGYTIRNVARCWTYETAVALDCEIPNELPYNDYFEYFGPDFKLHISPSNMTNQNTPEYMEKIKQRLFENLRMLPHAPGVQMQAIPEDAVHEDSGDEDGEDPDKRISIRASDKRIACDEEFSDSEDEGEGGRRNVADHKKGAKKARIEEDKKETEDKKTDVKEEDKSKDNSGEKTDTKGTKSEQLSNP

Row | inhibition [1] | IC50 [2] | IC50 (MDA-MB-231) | IC50 (cells [4]) | IC50 (MCF7) | Structure (SMILES) | further results
1 | 11% |  |  |  |  | O=C(CCCNC(=O)Cn1cnc2c(NCc3ccccc3)ncnc21)NO | 
2 | 25% |  |  |  |  | O=C(Cc1ccc(NC(=O)Cn2cnc3c(N4CCOCC4)ncnc32)cc1)NO | 
3 | 3% |  |  |  |  | CNc1ncnc2c1ncn2CC(=O)NCC(=O)NO | 
4 | 0% |  |  |  |  | Nc1nc(N2CCOCC2)c2ncn(CC(=O)Nc3ccc(CC(=O)NO)cc3)c2n1 | 
5 | 15% |  |  |  |  | O=C(CCCNC(=O)Cn1cnc2c(N3CCOCC3)ncnc21)NO | 
6 | 56% | > 5 µM |  |  |  | O=C(CCNC(=O)Cn1cnc2c(N3CCOCC3)nc(Nc3ccccc3)nc21)NO | 
7 | 80% | 0.3 µM | 1.61 µM | 3.8 µM | 9.58 µM | O=C(CCCCCNC(=O)Cn1cnc2c(Nc3ccccc3)nc(Nc3ccccc3)nc21)NO | IC50 (PC-3): 2.14 µM; IC50 (A549): 18 µM; IC50 [3]: 0.0038 µM; IC50 (Histone deacetylase 1): 0.028 µM; IC50 (U-937): 4.07 µM; IC50 (Histone deacetylase 8): 0.2 µM; IC50 (cells [5]): 13.4 µM; IC50 (HeLa): 9.08 µM
8 | 69% | > 5 µM |  |  |  | O=C(CCCNC(=O)Cn1cnc2c(N3CCOCC3)nc(Nc3ccccc3)nc21)NO | 
9 | 20% |  |  |  |  | Nc1nc(N2CCOCC2)c2ncn(CC(=O)NCCC(=O)NO)c2n1 | 
10 | 6% |  |  |  |  | CNc1ncnc2c1ncn2CC(=O)NCCCC(=O)NO | 
11 | 10% |  |  |  |  | CNc1ncnc2c1ncn2CC(=O)NCCC(=O)NO | 
12 | 70% | 2.05 µM | 34.2 µM | > 50 µM | > 50 µM | O=C(CCCCCNC(=O)Cn1cnc2c(NCc3ccccc3)ncnc21)NO | 
13 | 59% | 2.51 µM | > 50 µM | > 50 µM | > 50 µM | O=C(CCCCNC(=O)Cn1cnc2c(Nc3ccccc3)ncnc21)NO | 
14 | 3% |  |  |  |  | O=C(CNC(=O)Cn1cnc2c(NCc3ccccc3)ncnc21)NO | 
15 | 95% | 0.51 µM | 1.55 µM | 2.88 µM | 9.04 µM | O=C(CCCCCCNC(=O)Cn1cnc2c(Nc3ccccc3)nc(Nc3ccccc3)nc21)NO | IC50 (PC-3): 4.26 µM; IC50 (A549): 10.1 µM; IC50 [3]: 0.0018 µM; IC50 (Histone deacetylase 1): 0.063 µM; IC50 (U-937): 3.91 µM; IC50 (Histone deacetylase 8): 0.32 µM; IC50 (cells [5]): 8.95 µM; IC50 (HeLa): 8.76 µM
16 | 3% |  |  |  |  | O=C(CCNC(=O)Cn1cnc2c(N3CCOCC3)ncnc21)NO | 
17 | 53% | 4.53 µM | 41.3 µM |  | > 50 µM | Nc1nc(N2CCOCC2)c2ncn(CC(=O)NCCCCCC(=O)NO)c2n1 | 
18 | -1% |  |  |  |  | Nc1nc(N2CCOCC2)c2ncn(CC(=O)NCCCC(=O)NO)c2n1 | 
19 | 72% | 2.09 µM | 22.3 µM | > 50 µM | > 50 µM | O=C(CCCCCNC(=O)Cn1cnc2c(Nc3ccccc3)ncnc21)NO | 
20 | 98% | 0.075 µM | 1.56 µM | 5.37 µM | 18.6 µM | O=C(CCCCCNC(=O)Cn1cnc2c(N3CCOCC3)nc(Nc3ccccc3)nc21)NO | IC50 (PC-3): 6.44 µM; IC50 (A549): 46.1 µM; IC50 [3]: 0.0026 µM; IC50 (Histone deacetylase 1): 0.035 µM; IC50 (U-937): 6.5 µM; IC50 (Histone deacetylase 8): 0.15 µM; IC50 (cells [5]): 28 µM; IC50 (HeLa): 18.2 µM
21 | 49% | 2.94 µM | 8.91 µM | > 50 µM | > 50 µM | O=C(CCCCCCNC(=O)Cn1cnc2c(Nc3ccccc3)ncnc21)NO | 
22 | 13% |  |  |  |  | O=C(CCNC(=O)Cn1cnc2c(NCc3ccccc3)ncnc21)NO | 
23 | 87% | 0.59 µM | 11.1 µM | 34.7 µM | > 50 µM | O=C(CCCCNC(=O)Cn1cnc2c(Nc3ccccc3)nc(Nc3ccccc3)nc21)NO | 
24 | 49% | > 5 µM |  |  |  | O=C(CCCCCNC(=O)Cn1cnc2c(N3CCOCC3)ncnc21)NO | 
